According to patent publication US20250082674A1, “METHODS OF TREATING COPPER METABOLISM-ASSOCIATED DISEASES OR DISORDERS” (priority 2021, published 2025):
Like-named read-outs stand apart in the source and are kept apart here.

Columns and labels:
[1] = system: albumin levels
From the text: Across the 301, 201, and 205 studies, 102 participants had cirrhosis at baseline.

[2] = Description: Adverse events were reported by the patient (or, when appropriate, by a caregiver, surrogate, or the patient's legally authorized representative). The Investigator and any qualified designees were responsible for detecting, documenting, and recording events that meet the definition of an AE or SAE and remain responsible for following up AEs that were serious, considered related to the study intervention or study procedures, or that caused the patient to discontinue the study.
Acute worsening of neurologic symptoms typically within 6 months of start of therapy is a known complication associated with chelation therapy for WD. […] Neurologic AESI for Study 301 were considered as all AEs in the Medical Dictionary for Regulatory Activities (MedDRA) System Organ Class (SOC) “Nervous system disorders” or any other AE judged by the Investigator as an AESI.

[3] = Hematological AEs, Primary Evaluation Period, Safety Set, BC-TTM N = 137, SoC N = 70
[4] = Primary Evaluation Period, 48 Weeks, BC-TTM N = 137, SoC N = 70
[5] = Primary Evaluation Period, Safety Set, BC-TTM N = 137, SoC N = 70
[6] = Study 301, Primary Evaluation Period

Bis-choline tetrathiomolybdate [BC-TTM]
Albumin Level ([1]; Study 201 (normal 33-49), Participant 9, Baseline): 29 mg/dL
Albumin Level ([1]; Study 201 (normal 33-49), Participant 9, Week 48): 45 mg/dL
Albumin Level ([1]; Study 201 (normal 33-49), Participant 9, Week 150, early termination): 46 mg/dL
Albumin Level ([1]; Study 201 (normal 33-49), Participant 10, Baseline): 29 mg/dL
Albumin Level ([1]; Study 201 (normal 33-49), Participant 10, Week 48): 40 mg/dL
Albumin Level ([1]; Study 201 (normal 33-49), Participant 10, Week 98): 40 mg/dL
Albumin Level ([1]; Study 201 (normal 33-49), Participant 10, Week 163, early termination): 39 mg/dL
Albumin Level ([1]; Study 201 (normal 33-49), Participant 11, Baseline): 31 mg/dL
Albumin Level ([1]; Study 201 (normal 33-49), Participant 11, Week 48): 44 mg/dL
Albumin Level ([1]; Study 201 (normal 33-49), Participant 11, Week 98): 46 mg/dL
Albumin Level ([1]; Study 201 (normal 33-49), Participant 11, Week 150): 44 mg/dL
Albumin Level ([1]; Study 205 (normal 35-55), Participant 12, Baseline): 36 mg/dL
Albumin Level ([1]; Study 205 (normal 35-55), Participant 12, Day 43): 33 mg/dL
Albumin Level ([1]; Study 205 (normal 35-55), Participant 12, Day 57): 30 mg/dL
Albumin Level ([1]; Study 205 (normal 35-55), Participant 12, Day 169): 34 mg/dL
Albumin Level ([1]; Study 205 (normal 35-55), Participant 12, Day 253): 34 mg/dL
Albumin Level ([1]; Study 205 (normal 35-55), Participant 12, Day 337, early termination): 37 mg/dL
Albumin Level ([1]; Study 205 (normal 35-55), Participant 13, Baseline): 45 mg/dL
Albumin Level ([1]; Study 205 (normal 35-55), Participant 13, Day 345): 27 mg/dL
Albumin Level ([1]; Study 301 (normal 35-55), Participant 1, Baseline): 33 mg/dL
Albumin Level ([1]; Study 301 (normal 35-55), Participant 1, Week 48): 47 mg/dL
Albumin Level ([1]; Study 301 (normal 35-55), Participant 1, Week 96): 48 mg/dL
Albumin Level ([1]; Study 301 (normal 35-55), Participant 2, Baseline): 37 mg/dL
Albumin Level ([1]; Study 301 (normal 35-55), Participant 2, Week 48): 34 mg/dL
Albumin Level ([1]; Study 301 (normal 35-55), Participant 2, Week 60, early termination): 25 mg/dL
Albumin Level ([1]; Study 301 (normal 35-55), Participant 3, Baseline): 34 mg/dL
Albumin Level ([1]; Study 301 (normal 35-55), Participant 3, Week 48): 36 mg/dL
Albumin Level ([1]; Study 301 (normal 35-55), Participant 3, Week 60): 34 mg/dL
Albumin Level ([1]; Study 301 (normal 35-55), Participant 4, Baseline): 28 mg/dL
Albumin Level ([1]; Study 301 (normal 35-55), Participant 4, Week 48): 31 mg/dL
Albumin Level ([1]; Study 301 (normal 35-55), Participant 5, Baseline): 32 mg/dL
Albumin Level ([1]; Study 301 (normal 35-55), Participant 5, Week 48): 37 mg/dL
Albumin Level ([1]; Study 301 (normal 35-55), Participant 5, Week 96): 37 mg/dL
Albumin Level ([1]; Study 301 (normal 35-55), Participant 6, Baseline): 29 mg/dL
Albumin Level ([1]; Study 301 (normal 35-55), Participant 6, Week 24): 35 mg/dL
Albumin Level ([1]; Study 301 (normal 35-55), Participant 6, Week 48): 42 mg/dL
Albumin Level ([1]; Study 301 (normal 35-55), Participant 6, Week 96): 40 mg/dL
Albumin Level ([1]; Study 301 (normal 35-55), Participant 7, Baseline (Week 48 Extension Day 1)): 42 mg/dL
Albumin Level ([1]; Study 301 (normal 35-55), Participant 7, Week 8): 37 mg/dL
Albumin Level ([1]; Study 301 (normal 35-55), Participant 7, Week 24): 36 mg/dL
Albumin Level ([1]; Study 301 (normal 35-55), Participant 7, Week 30): 35 mg/dL
Albumin Level ([1]; Study 301 (normal 35-55), Participant 7, Week 48): 35 mg/dL
Albumin Level ([1]; Study 301 (normal 35-55), Participant 7, Week 144): 37 mg/dL
Albumin Level ([1]; Study 301 (normal 35-55), Participant 8, Baseline (Week 48 Extension Day 1)): 42 mg/dL
Albumin Level ([1]; Study 301 (normal 35-55), Participant 8, Week 120, early termination): 32 mg/dL
participants with cirrhosis at baseline who experienced changes in albumin levels ([1]; of 102, Studies 301, 201, 205): 13 participants
participants with cirrhosis at baseline whose albumin levels remained stable ([1]; of 102, Studies 301, 201, 205): 89 participants
participants with cirrhosis at baseline who maintained liver function (albumin levels) ([1]; of 102 participants): 87%
cirrhotic participants whose albumin levels returned to the normal range ([1]; of the 13 with changes in liver function): 7 participants
Anemia, E events [2, 3]: 7
Anemia, N participants [2, 3]: 6
Anemia, participants (%) [2, 3]: 4.4%
Leukopenia, E events [2, 3]: 3
Leukopenia, N participants [2, 3]: 2
Leukopenia, participants (%) [2, 3]: 1.5%
Neutropenia, E events [2, 3]: 6
Neutropenia, N participants [2, 3]: 6
Neutropenia, participants (%) [2, 3]: 4.4%
Neutrophil count decreased, E events [2, 3]: 4
Neutrophil count decreased, N participants [2, 3]: 2
Neutrophil count decreased, participants (%) [2, 3]: 1.5%
Thrombocytopenia, E events [2, 3]: 2
Thrombocytopenia, N participants [2, 3]: 1
Thrombocytopenia, participants (%) [2, 3]: 0.7%
Alanine aminotransferase increased, N participants [2, 4]: 20
Alanine aminotransferase increased, participants (%) [2, 4]: 14.6%
Aspartate aminotransferase increased, N participants [2, 4]: 4
Aspartate aminotransferase increased, participants (%) [2, 4]: 2.9%
Ear and labyrinth disorders, N participants [2, 4]: 7
Ear and labyrinth disorders, participants (%) [2, 4]: 5.1%
Fatigue, N participants [2, 4]: 13
Fatigue, participants (%) [2, 4]: 9.5%
Gamma-glutamyltransferase increased, N participants [2, 4]: 3
Gamma-glutamyltransferase increased, participants (%) [2, 4]: 2.2%
Hepatic enzyme increased, N participants [2, 4]: 3
Hepatic enzyme increased, participants (%) [2, 4]: 2.2%
Hepatobiliary disorders, N participants [2, 4]: 9
Hepatobiliary disorders, participants (%) [2, 4]: 6.6%
Investigations, N participants [2, 4]: 46
Investigations, participants (%) [2, 4]: 33.6%
Nervous system disorders, N participants [2, 4]: 47
Nervous system disorders, participants (%) [2, 4]: 34.3%
Neutrophil count decreased, N participants [2, 4]: 2
Neutrophil count decreased, participants (%) [2, 4]: 1.5%
Pruritus, N participants [2, 4]: 5
Pruritus, participants (%) [2, 4]: 3.6%
Psychiatric disorders, N participants [2, 4]: 26
Psychiatric disorders, participants (%) [2, 4]: 19.0%
Pyrexia, N participants [2, 4]: 8
Pyrexia, participants (%) [2, 4]: 5.8%
Rash, N participants [2, 4]: 9
Rash, participants (%) [2, 4]: 6.6%
Skin and subcutaneous tissue disorders, N participants [2, 4]: 30
Skin and subcutaneous tissue disorders, participants (%) [2, 4]: 21.9%
ALT increased, E events [2, 5]: 25
ALT increased, N participants [2, 5]: 20
ALT increased, participants (%) [2, 5]: 14.6%
AST increased, E events [2, 5]: 4
AST increased, N participants [2, 5]: 4
AST increased, participants (%) [2, 5]: 2.9%
GGT increased, E events [2, 5]: 3
GGT increased, N participants [2, 5]: 3
GGT increased, participants (%) [2, 5]: 2.2%
Hepatic enzyme increased, E events [2, 5]: 5
Hepatic enzyme increased, N participants [2, 5]: 3
Hepatic enzyme increased, participants (%) [2, 5]: 2.2%
Hepatic function abnormal, E events [2, 5]: 3
Hepatic function abnormal, N participants [2, 5]: 3
Hepatic function abnormal, participants (%) [2, 5]: 2.2%
Hyperbilirubinemia, E events [2, 5]: 1
Hyperbilirubinemia, N participants [2, 5]: 1
Hyperbilirubinemia, participants (%) [2, 5]: 0.7%
Hypertransaminasemia, E events [2, 5]: 4
Hypertransaminasemia, N participants [2, 5]: 2
Hypertransaminasemia, participants (%) [2, 5]: 1.5%
Jaundice, E events [2, 5]: 1
Jaundice, N participants [2, 5]: 1
Jaundice, participants (%) [2, 5]: 0.7%
LFT abnormal, E events [2, 5]: 2
LFT abnormal, N participants [2, 5]: 2
LFT abnormal, participants (%) [2, 5]: 1.5%
LFT increased, E events [2, 5]: 4
LFT increased, N participants [2, 5]: 4
LFT increased, participants (%) [2, 5]: 2.9%
Liver disorder, E events [2, 5]: 1
Liver disorder, N participants [2, 5]: 1
Liver disorder, participants (%) [2, 5]: 0.7%
ALT increased as share of treatment-emergent adverse events (25/577) ([2]; Study 301): 4.3%
incidence of AE ALT increased ([2]; Study 301): 14.6%
incidence of SAEs, Nervous system disorders ([2]; Study 301): 4.4%
incidence of hematologic AEs, BC-TTM versus SoC ([2]; Study 301): similar
participants with Grade 4 AEs, Nervous system disorders ([2]; Study 301): 1 participant
participants with Grade 5 AEs, Nervous system disorders ([2]; Study 301): 1 participant
participants with highest severity Grade 1 AEs, Nervous system disorders ([2]; Study 301): 24.1%
participants with highest severity Grade 2 AEs, Nervous system disorders ([2]; Study 301): 13.9%
participants with neurologic AESI in the SOC Psychiatric disorders ([2]; Study 301): 3.6%
AEs in SOC Ear and labyrinth disorders [2, 6]: 5.1%
AEs in SOC Hepatobiliary disorders [2, 6]: 6.6%
AEs in SOC Investigations [2, 6]: 33.6%
AEs in SOC Psychiatric disorders [2, 6]: 19.0%
AEs in SOC Skin and subcutaneous tissue disorders [2, 6]: 21.9%
incidence of AEs in the SOC Nervous system disorders [2, 6]: 34.3%
incidence of headache [2, 6]: 8.0%
incidence of tremor [2, 6]: 7.3%
participants discontinued due to AE of anemia (Grade 1) ([2]; clinical program for BC-TTM): 1 participant
participants discontinued due to AE of neutropenia (Grade 2) ([2]; clinical program for BC-TTM): 1 participant
overall safety profile ([2]; participants with WD): acceptable safety profile and is generally well-tolerated
